{
  "source": "paper PMC9080270",
  "about": "(RSC Advances, 2018)",
  "molecular_target": "T1, adenosine A1 receptor (A1AR) (Homo sapiens, UniProt P30542)",
  "T1 sequence (P30542 1-326)": "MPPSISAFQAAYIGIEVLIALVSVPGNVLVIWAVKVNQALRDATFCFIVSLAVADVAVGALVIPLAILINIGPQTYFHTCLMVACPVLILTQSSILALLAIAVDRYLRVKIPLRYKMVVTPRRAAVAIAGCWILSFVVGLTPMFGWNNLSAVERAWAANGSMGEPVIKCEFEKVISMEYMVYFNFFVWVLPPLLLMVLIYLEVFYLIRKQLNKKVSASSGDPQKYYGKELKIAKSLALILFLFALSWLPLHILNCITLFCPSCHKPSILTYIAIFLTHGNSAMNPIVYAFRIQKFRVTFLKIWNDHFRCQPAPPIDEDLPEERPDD",
  "assay": "NanoBRET saturation binding in HEK293 cells",
  "format": "cell-based",
  "data": [
    {"substance": "CA200645", "values": [
      {"measurement": "Kd", "result": 110, "unit": "nM"}
    ]}
  ]
}
